The text below walks through data of patent publication US9145354B2, “Pharmaceutical compounds” (priority 2011, dated 2015).

Like-named read-outs stand apart in the source and are kept apart here. A value given as a limit tells only on which side of the number the result lay.

Data set [1] addresses full length NS3/4a (Hepatitis C virus genotype 1b (isolate BK) (HCV), UniProt P26663). Nature of the data set: NS3 Protease Assay (Example A), FRET-based. In kind it is biochemical. The gist of the method:
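Full-length NS3/4a, made in-house, with an NS4A/B-derived peptide substrate carrying QXL520 quencher and 5-FAMsp fluorophore. Buffer 50 mM Tris pH8, 20 mM DTT, 1% CHAPS, 10% glycerol, 5% DMSO. Fluorescence followed 30 min at room temperature; IC50 from initial rates of replicate curves.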

The nature of data set [2]: Replicon Assay (Example B), Alamar Blue cytotoxicity CC50. It counts as cell-based. The conditions noted are these: human, lower value of the cell pair. The method in brief: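 Huh-7 cells carrying a luciferase/neo HCV subgenomic replicon (NS3–NS5b) were treated with semilog compound dilutions in triplicate (0.1% DMSO) for 72 h at 37 °C. Viability came from Alamar blue resazurin-to-resorufin fluorescence (535/590 nm) for CC50. EC50 came from Bright-Glo luciferase luminescence as a proxy for HCV RNA.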
On the technique in general: In antiviral work, replicon cells carry a viral genome segment that copies itself.

In data set [3] the test system is HCV subgenomic replicon in Huh-7 cells. Nature of the data set: Replicon Assay (Example B), luciferase readout EC50. It counts as cell-based. The conditions noted are these: Hepatitis C virus, Huh-7, replicon assay, luciferase readout; upper value of the cell pair; read-out: Assay B EC50. The gist of the method:
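Huh-7 cells carrying a luciferase-neo HCV subgenomic replicon (NS3–NS5b) were treated with semilog compound dilutions (0.1% DMSO final), in triplicate, for 72 h at 37° C. EC50 came from Bright-Glo luciferase signal as a proxy for replicon RNA; viability was read by Alamar blue.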

Setting [4] is: HCV NS3 protease assay, full length NS3/4a, read-out: Assay A IC50 (μM) average.
Setting [5] is: read-out: IC50 against the protease activity of the full length NS3/4a.

full length NS3/4a, sequence (P26663 1027-1657): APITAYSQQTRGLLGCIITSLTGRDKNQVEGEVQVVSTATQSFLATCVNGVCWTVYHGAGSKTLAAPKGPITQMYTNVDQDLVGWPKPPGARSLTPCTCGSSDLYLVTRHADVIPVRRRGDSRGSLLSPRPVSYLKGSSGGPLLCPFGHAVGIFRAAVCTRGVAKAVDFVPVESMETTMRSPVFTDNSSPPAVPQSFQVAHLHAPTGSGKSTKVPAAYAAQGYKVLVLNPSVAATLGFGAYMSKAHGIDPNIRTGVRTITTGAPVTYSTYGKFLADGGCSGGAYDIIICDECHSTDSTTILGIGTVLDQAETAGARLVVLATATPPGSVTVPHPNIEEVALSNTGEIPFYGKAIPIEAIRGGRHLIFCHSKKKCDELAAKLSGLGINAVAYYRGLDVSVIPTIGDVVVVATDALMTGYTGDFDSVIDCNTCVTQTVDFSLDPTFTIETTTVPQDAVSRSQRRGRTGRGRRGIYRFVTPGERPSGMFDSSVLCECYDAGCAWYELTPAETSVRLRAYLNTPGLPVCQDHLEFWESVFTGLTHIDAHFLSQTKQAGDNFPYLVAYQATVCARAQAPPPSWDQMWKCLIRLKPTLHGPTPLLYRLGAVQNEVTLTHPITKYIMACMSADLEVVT

The term CC50 denotes the concentration giving 50% cytotoxicity. Low readings indicate harm at low concentration, high ones better tolerance by the cells. The term EC50 denotes the midpoint of the concentration-response curve. For the compound `CC[C@@H](N[C@@H](C)CC(N)=O)c1ccc(Cl)c(C(=O)c2ccc(O)cc2)c1F` [Example 230, (3S)-3-{[(1R)-1-{4-chloro-2-fluoro-3-[(4-hydroxyphenyl)carbonyl]phenyl}propyl]amino} butanamide], the results for the IC50 in data set [1] (setting [4]) and in data set [1] (setting [5]) were 0.55 µM and < 1 µM, respectively. Further, in data set [2], the CC50 at 72 h is > 3000 nM. The EC50 in data set [3] is 37 nM.

For the compound `CC[C@@H](N[C@@H](C)CC(N)=O)c1ccc(Cl)c(C(=O)c2ccc(N)c(Cl)c2)c1F` [Example 234, (3S)-3-{[(1R)-1-{3-[(4-amino-3-chlorophenyl)carbonyl]-4-chloro-2-fluorophenyl}propyl]amino} butanamide], the IC50 was 0.14 µM in data set [1] (setting [4]) and < 1 µM in data set [1] (setting [5]). Further, in data set [2], the CC50 at 72 h was > 1000 nM. The EC50 in data set [3] was determined as 2.8 nM.

Regarding `CC[C@@H](N[C@@H](C)CC(N)=O)c1ccc(Cl)c(C(=O)c2ccc(C#N)c(OC)c2)c1F` [Example 235, (3S)-3-{[(1R)-1-{4-chloro-3-[(4-cyano-3-methoxyphenyl)carbonyl]-2-fluorophenyl}propyl]amino} butanamide], the IC50 in data set [1] (setting [4]) was 0.13 µM; in data set [1] (setting [5]) it was < 1 µM. In addition, in data set [2], the CC50 at 72 h was > 1000 nM. For the same compound, the EC50 in data set [3] is 8.8 nM.

For the compound `C[C@@H](CC(N)=O)N[C@@H](c1ccc(Cl)c(C(=O)c2ccc(N)cn2)c1F)C1CC1` [Example 237, (3S)-3-{[(R)-{3-[(5-aminopyridin-2-yl)carbonyl]-4-chloro-2-fluorophenyl}(cyclopropyl)methyl]amino}butanamide], in data set [1] (setting [4]), the IC50 was 0.31 µM. The CC50 at 72 h in data set [2] was > 1000 nM. In addition, the EC50 in data set [3] was 47 nM.

As for `C[C@@H](CC(N)=O)N[C@@H](c1ccc(Cl)c(C(=O)c2ccc(C#N)cn2)c1F)C1CC1` [Example 238, (3S)-3-{[(R)-{4-chloro-3-[(5-cyanopyridin-2-yl)carbonyl]-2-fluorophenyl}(cyclopropyl)methyl]amino}butanamide], the IC50 in data set [1] (setting [4]) was found to be 0.11 µM. In addition, the CC50 at 72 h in data set [2] was > 1000 nM. Further, the EC50 in data set [3] stood at 30 nM.

With `CC[C@@H](N[C@@H](C)CC(N)=O)c1ccc(Cl)c(C(=O)c2cc(C)c(N)cn2)c1F` [Example 239, (3S)-3-{[(1R)-1-{3-[(5-amino-4-methylpyridin-2-yl)carbonyl]-4-chloro-2-fluorophenyl}propyl]amino} butanamide], the IC50 in data set [1] (setting [4]) is 0.5 µM. In data set [2], the CC50 at 72 h is > 1000 nM. Moreover, the EC50 in data set [3] amounted to 38 nM.

As to `CC[C@@H](N[C@@H](C)CC(=O)NCCO)c1ccc(Cl)c(C(=O)c2ccc(N)nc2)c1F` [Example 242, (3S)-3-{[(1R)-1-{3-[(6-aminopyridin-3-yl)carbonyl]-4-chloro-2-fluorophenyl}propyl]amino}-N-(2-hydroxyethyl)butanamide], the IC50 in data set [1] (setting [4]) worked out at 0.49 µM. Moreover, the CC50 at 72 h in data set [2] was > 1000 nM. For the same compound, the EC50 in data set [3] came out at 98 nM.

For `CC[C@@H](N[C@@H](C)CC(N)=O)c1ccc(Cl)c(C(=O)c2ccc3c(c2)OCC(=O)N3)c1F` [Example 247, (3S)-3-{[(1R)-1-{4-chloro-2-fluoro-3-[(3-oxo-3,4-dihydro-2H-1,4-benzoxazin-7-yl)carbonyl]phenyl}propyl]amino}butanamide], the IC50 in data set [1] (setting [4]) is 0.29 µM; in data set [1] (setting [5]), < 1 µM. Also, the CC50 at 72 h in data set [2] was > 1000 nM. The EC50 in data set [3] is 21 nM.

In the case of `CC[C@@H](N[C@@H](C)CC(N)=O)c1ccc(Cl)c(C(=O)c2ccc3c(c2)OCCN3)c1F` [Example 249, (3S)-3-{[(1R)-1-{4-chloro-3-[(3,4-dihydro-2H-1,4-benzoxazin-7-yl)carbonyl]-2-fluorophenyl}propyl]amino} butanamide], the IC50 in data set [1] (setting [4]) came out at 0.27 µM. Moreover, the CC50 at 72 h in data set [2] was > 1000 nM. Besides, the EC50 in data set [3] is 33 nM.

On to `CC[C@@H](NC(C)(C)CC(N)=O)c1ccc(Cl)c(C(=O)c2ccc(N)nc2)c1F` [Example 250, 3-{[(1R)-1-{3-[(6-aminopyridin-3-yl)carbonyl]-4-chloro-2-fluorophenyl}propyl]amino}-3-methylbutanamide], for which the IC50 in data set [1] (setting [4]) turned out to be 0.095 µM. In addition, the CC50 at 72 h in data set [2] is > 1000 nM. In addition, the EC50 in data set [3] came to 29 nM.

`CC[C@H](NC(C)(C)CC(N)=O)c1ccc(Cl)c(C(=O)c2ccc(N)nc2)c1F` [Example 251, 3-{[(1S)-1-{3-[(6-aminopyridin-3-yl)carbonyl]-4-chloro-2-fluorophenyl}propyl]amino}-3-methylbutanamide]: in data set [1] (setting [4]), the IC50 came out at 0.3 µM. Further, the CC50 at 72 h in data set [2] was > 1000 nM. Besides, the EC50 in data set [3] is > 1000 nM.

As to `CC[C@@H](N[C@@H](C)CC(N)=O)c1ccc(OC)c(C(=O)c2ccc(N)nc2)c1F` [Example 252, (3S)-3-{[(1R)-1-{3-[(6-aminopyridin-3-yl)carbonyl]-2-fluoro-4-methoxyphenyl}propyl]amino}butanamide], the IC50 in data set [1] (setting [4]) worked out at 0.18 µM. Also, in data set [2], the CC50 at 72 h was > 1000 nM. For the same compound, the EC50 in data set [3] stood at 130 nM.

Consider `C[C@@H](CC(N)=O)N[C@@H](c1ccc(Cl)c(C(=O)c2ccc(N)c(C#N)c2)c1F)C1CC1` [Example 255, (3S)-3-{[(R)-{3-[(4-amino-3-cyanophenyl)carbonyl]-4-chloro-2-fluorophenyl}(cyclopropyl)methyl]amino}butanamide], for which, in data set [1] (setting [4]), the IC50 worked out at 0.24 µM. Besides, the CC50 at 72 h in data set [2] was > 1000 nM. The EC50 in data set [3] was determined as 27 nM.

Regarding `C=CC[C@@H](N[C@@H](C)CC(N)=O)c1ccc(Cl)c(C(=O)c2ccc(N)nc2)c1F` [Example 256, (3S)-3-{[(1R)-1-{3-[(6-aminopyridin-3-yl)carbonyl]-4-chloro-2-fluorophenyl}but-3-en-1-yl]amino} butanamide], the IC50 in data set [1] (setting [4]) was determined as 0.47 µM. Further, in data set [2], the CC50 at 72 h is > 1000 nM. Moreover, the EC50 in data set [3] stood at 46 nM.

Consider `CCC[C@@H](N[C@@H](C)CC(N)=O)c1ccc(Cl)c(C(=O)c2ccc(N)nc2)c1F` [Example 258, (3S)-3-{[(1R)-1-{3-[(6-aminopyridin-3-yl)carbonyl]-4-chloro-2-fluorophenyl}butyl]amino} butanamide], for which the figures for the IC50 in data set [1] (setting [4]) and in data set [1] (setting [5]) were 0.28 µM and < 1 µM, respectively. In addition, the CC50 at 72 h in data set [2] was > 1000 nM. The EC50 in data set [3] is 20 nM.

For `CC[C@@H](N[C@@H](C)CC(N)=O)c1ccc(Cl)c(C(=O)c2ccc(N)c(C)c2)c1F` [Example 259, (3S)-3-{[(1R)-1-{3-[(4-amino-3-methylphenyl)carbonyl]-4-chloro-2-fluorophenyl}propyl]amino} butanamide], the IC50 in data set [1] (setting [4]) was 0.11 µM; in data set [1] (setting [5]), < 1 µM. Further, the CC50 at 72 h in data set [2] is > 1000 nM. Besides, in data set [3], the EC50 is 21 nM.

Regarding `C[C@@H](CC(N)=O)N[C@@H](c1ccc(Cl)c(C(=O)c2ccc(N)c(Cl)c2)c1F)C1CC1` [Example 261, (3S)-3-{[(R)-{3-[(4-amino-3-chlorophenyl)carbonyl]-4-chloro-2-fluorophenyl}(cyclopropyl)methyl]amino}butanamide], the IC50 in data set [1] (setting [4]) is 0.16 µM; in data set [1] (setting [5]), < 1 µM. In addition, in data set [2], the CC50 at 72 h was > 1000 nM. Besides, the EC50 in data set [3] came out at 9.1 nM.

In general, inhibition refers to the drop in the measured response relative to a control, in per cent. For `Cc1cc(C(=O)c2c(Cl)ccc([C@H](N[C@@H](C)CC(N)=O)C3CC3)c2F)ccc1N` [Example 262, (3S)-3-{[(R)-{3-[(4-amino-3-methylphenyl)carbonyl]-4-chloro-2-fluorophenyl}-(cyclopropyl)-methyl]-amino}butanamide], testing at 0.1 µM in data set [1] (@ 0.1 uM) gave an inhibition of 32%. Moreover, the CC50 at 72 h in data set [2] was > 1000 nM. Further, the EC50 in data set [3] came out at 8.5 nM.

As to `C[C@@H](CC(N)=O)N[C@@H](c1ccc(Cl)c(C(=O)c2ccc(CO)cc2)c1F)C1CC1` [Example 263, (3S)-3-{[(R)-(4-chloro-2-fluoro-3-{[4-(hydroxyl-methyl)phenyl]-carbonyl}phenyl)(cyclo-propyl)-methyl]amino}-butanamide], in data set [1] (setting [4]), the IC50 came out at 0.11 µM. In data set [2], this compound came in with a CC50 at 72 h of 79000 nM. The concentration for a half-maximal effect (EC50) in data set [3] turned out to be 4 nM.

Regarding `[2H]C([2H])([2H])C([2H])([2H])[C@@H](N[C@@H](C)CC(N)=O)c1ccc(Cl)c(C(=O)c2ccc(N)nc2)c1F` [Example 265, (3S)-3-{[(1R)-1-{3-[(6-aminopyridin-3-yl)carbonyl]-4-chloro-2-fluorophenyl}(2,2,3,3,3-deutero)propyl]amino}-butanamide], the IC50 in data set [1] (setting [4]) amounted to 0.13 µM. For the same compound, the CC50 at 72 h in data set [2] was > 3000 nM. Moreover, the concentration giving a half-maximal response (EC50) in data set [3] came out at 25 nM.

In the case of `[2H]C([2H])([2H])C([2H])([2H])[C@@H](N[C@@H](C)CC(N)=O)c1ccc(Cl)c(C(=O)c2ccc(N)c(Cl)c2)c1F` [Example 267, (3S)-3-{[(1R)-1-{3-[(4-amino-3-chlorophenyl)carbonyl]-4-chloro-2-fluorophenyl}(2,2,3,3,3-deutero)propyl]amino}-butanamide], the IC50 in data set [1] (setting [4]) is 0.085 µM; in data set [1] (setting [5]), < 1 µM. Moreover, the CC50 at 72 h in data set [2] was > 3000 nM. For the same compound, the EC50 in data set [3] came to 5 nM.

Consider `CC(C)C[C@@H](N[C@@H](C)CC(N)=O)c1ccc(Cl)c(C(=O)c2ccc(N)nc2)c1F` [Example 269, (3S)-3-{[(1R)-1-{3-[(6-aminopyridin-3-yl)carbonyl]-4-chloro-2-fluorophenyl}-3-methylbutyl]amino}-butanamide], for which the IC50 in data set [1] (setting [4]) was 1.1 µM; in data set [1] (setting [5]), 1 to 5 µM. The CC50 at 72 h in data set [2] is > 3000 nM. In addition, in data set [3], the EC50 is 70 nM.
